From PubChem BioAssay (NCI)
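In this assay, cells in 96-well plates receive the compound at five concentrations for 48 hours. Endpoints are linearly interpolated between the surrounding concentrations. At the TGI there is no net growth.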

How the values were obtained:
Experiment in all cases: NCI tumour cell line growth inhibition, 48 h
A498 renal = system: A498 renal
BT-549 breast = system: BT-549 breast
COLO 205 colon = system: COLO 205 colon
HOP-62 NSCLC = system: HOP-62 NSCLC
HOP-92 NSCLC = system: HOP-92 NSCLC
HS 578T breast = system: HS 578T breast
MDA-MB-231 breast = system: MDA-MB-231 breast
NCI-H23 lung = system: NCI-H23 lung
NCI/ADR-RES ovarian = system: NCI/ADR-RES ovarian
PC-3 prostate = system: PC-3 prostate
RPMI-8226 leukemia = system: RPMI-8226 leukemia
HCT-15 colon = system: HCT-15 colon

Measured: TGI

C#CCOC(=O)C(N)CS (stereo not drawn)
not listed: HCT-15 colon
> 100 µM: all other assays above

O=S(=O)([N-]c1nc2ccccc2nc1-[n+]1ccccc1)c1ccccc1
84.8 µM: MDA-MB-231 breast
not listed: A498 renal
> 100 µM: all other assays above

COc1ccc(OC)c2c(=O)cc(-c3ccccc3)[nH]c12
not listed: HOP-92 NSCLC
> 100 µM: all other assays above

C=C(CO)[C@H]1CC/C(C)=C/CC/C(C)=C/C/C=C(\C)[C@H](O)C1
51.6 µM: RPMI-8226 leukemia
86.9 µM: NCI-H23 lung
56.6 µM: MDA-MB-231 breast
44.2 µM: BT-549 breast
74.1 µM: HS 578T breast
90.3 µM: NCI/ADR-RES ovarian
59.9 µM: COLO 205 colon
> 100 µM: HCT-15 colon | HOP-62 NSCLC | PC-3 prostate
39.5 µM: HOP-92 NSCLC

C=CCNC(NCC=C)=C(C(Cl)=C(Cl)Cl)[N+](=O)[O-]
54 µM: HS 578T breast
37.2 µM: COLO 205 colon
32.9 µM: HCT-15 colon
83.4 µM: BT-549 breast
not listed: HOP-92 NSCLC
> 100 µM: all other assays above

[N-]=[N+]=Nc1cc(=O)n(-c2ccccc2)c(=O)n1-c1ccccc1
not listed: A498 renal | HCT-15 colon
> 100 µM: all other assays above

c1ccc2c(c1)n1c(N3CCOCC3)[n+]3ccccc3c1c1c3cccc[n+]3c(N3CCOCC3)n21
not listed: HOP-62 NSCLC
> 100 µM: all other assays above

C=C1[C@H](OCC(C)C)[C@@H](OCC(C)C)[C@@H](O)C(C)(C)/C=C/[C@H](C)C(=O)[C@@]2(O)C[C@H](C)[C@H](O)[C@@H]2[C@H]1OCC(C)C
not listed: RPMI-8226 leukemia
> 7.5 µM: all other assays above

Cc1cc2c(cc1Cl)SC(NNC(=O)c1ccncc1)=NS2(=O)=O
not listed: HOP-92 NSCLC
> 10 µM: all other assays above
